Values quoted from earlier work as cited in article PMC8127065 (Journal of controlled release : official journal of the …, 2021).

Which water solubility does the source give for C=CC[C@@H]1/C=C(\C)C[C@H](C)C[C@H](OC)[C@H]2O[C@@](O)(C(=O)C(=O)N3CCCC[C@H]3C(=O)O[C@H](/C(C)=C/[C@@H]3CC[C@@H](O)[C@H](OC)C3)[C@H](C)[C@@H](O)CC1=O)[C@H](C)C[C@@H]2OC [Tacrolimus] here?
The water solubility was 1 to 2 µg/mL.
